# What was measured:
# [1] = Particle size distribution (PSD) analysis by laser diffraction; assay type: physicochemical; conditions: primary pressure of 4 bar, lens R1, R3 or R5 per sample
# Procedure: (§1) In order to provide a small and homogeneous particle size of psychedelic compound in the final suspensions, psilocybin and psilocin were micronised before use. Micronisation was performed by wet bead milling using decafluoropentane as the antisolvent. In a glass vial, 200 mg psychedelic compound and 2 g of 1 mm silica beads were weighed. 3 mL of the antisolvent was added for psilocybin and 2 mL for psilocin. The samples were vortexed for approximately 15 seconds then milled at 530 rpm for 60 minutes.
# (§2) The micronised sample was then separated from the silica beads and transferred to a petri dish and left at room temperature to allow for evaporation of the solvent overnight (approximately 18 hours). The dried sample was then collected and characterised by PSD and XRPD.
# Particle size analysis was carried out, in single analysis, by laser diffraction using a Sympatec Helos particle size analyser, equipped with a RODOS dry dispersion unit and ASPIROS feeder unit. The lens and primary pressures were varied for each compound tested.
# XRPD after micronisation = assay type: physicochemical; conditions: wet bead milling in decafluoropentane
# Procedure: as §1, §2
# X-ray powder diffraction (XRPD) analysis was carried out using a Bruker D2 Phaser powder diffractometer equipped with a LynxEye detector. The specimens were located at the centre of a silicon sample holder within a 5 mm pocket. The samples were continuously spun during data collection and scanned using a step size of 0.02° two theta (2θ) between 5° to 60° two theta, the detailed parameters are summarised in Table 10. The data was processed using Diffrac Plus EVA software (Version 3.1).
# [2] = reported; cited from earlier work
# [3] = Solubility in excipients (preparative work)
# [4] = Two-compartment IV bolus PK model fitted to published human psilocybin IV data; conditions: psilocin after 1 mg psilocybin IV
# Procedure: All analysis was performed using the software R and RStudio, with models being defined using analytical and ODE solutions.
# Derivation of system PK parameters for psilocybin/psilocin Systemic PK parameters were derived for published human bolus psilocybin IV data.
# Human IV PK data for psilocin after psilocybin was administered was taken from Hasler et al. “Determination of psilocin and 4-hydroxyindole-3-acetic acid in plasma by HPLC-ECD and pharmacokinetic profiles of oral and intravenous psilocybin in man”. Pharm Acta Helv. 1997 June; 72(3):175-84. Model selection was performed by assessing visual fit to data and the respective model AIC's of a one compartment and two compartment IV PK model. These systemic human PK parameters were then used for human […] injection simulations by simulating the PK profiles over a range of doses and absorption rates.
# It is assumed that the generation of psilocin is instantaneous and complete once psilocybin is absorbed.
# An IV two compartment model best described the IV data from FIG. 2. A two-compartment model gave a good description of the raw data capturing the Cmax and terminal phase well, FIG. 3. The systemic PK parameters can be seen in Table 1 and there are low errors in the parameter estimates.
# [5] = One compartment SC PK model of psilocin fitted to digitised rat SC data
# Procedure: Rat SC PK data was digitised for four dose levels (Higgins, G. A. et al., 2021. “Low Doses of Psilocybin and Ketamine Enhance Motivation and Attention in Poor Performing Rats: Evidence for an Antidepressant Property”. Frontiers in Pharmacology, Volume 12, p. 299). The PK was fitted using a one compartment SC model where volume was fixed to the same as human in L/kg. The model was fit to the lower 3 doses levels as the higher dose was determined to be out of the range of investigation.
# A one compartment model was used with linear absorption and clearance shown schematically in […]. Mathematically, this model is a series of two linked ordinary differential equations (ODE's) given in equations (7)-(8).
# Constant ka is the absorption rate constant (units 1/h), Cl is the clearance (units mL/h), Vc is the volume of distribution of the central compartment (units mL).
# It is assumed that the generation of psilocin is instantaneous once psilocybin is absorbed. Due to a lack of rat IV PK data and human and rat plasma protein binding data, total rat volume of distribution (V) on ml/kg basis was fixed to the same as human total volume of distribution. A one compartment SC model gives a satisfactory fit to the absorption phase, seen in FIG. 5, this gives good confidence of the fitted ka value seen in Table 2. Bioavailability was again assumed to be 1.
# [6] = Human simulations of psilocin exposure after SC administration; conditions: from absorption rate of rat SC model
# Procedure: The model that was used is shown schematically in FIG. 6, mathematically the analytical solution is shown in equations (9)-(14).
# Using the absorption rate from modelling the rat SC data and the human systemic psilocin PK parameters, human SC simulations were run over 1-12 mg doses and the simulated PK profiles can be seen in FIG. 7. […] These profiles can be seen in FIG. 8, with the summary statistics in Table 4.
# [7] = psilocin after SC psilocybin, rat, fit to 0.05, 0.1, 1 mg/kg
compound,measurement,setting,value
CN(C)CCc1c[nH]c2cccc(O)c12 [Micronised psilocin],D10,[1],0.44 μm
"CN(C)CCc1c[nH]c2cccc(OP(=O)(O)O)c12 [psilocybin, [3-(2-dimethylaminoethyl)-1H-indol-4-yl] dihydrogen phosphate]",chemical degradation upon micronisation (XRPD),XRPD after micronisation,no significant chemical degradation upon micronisation
same,bioavailability,[2],approximately 50%
same,solubility in all the excipients tested,"[3]; non-micronised, 20 excipients",poor
CN(C)CCc1c[nH]c2cccc(OP(=O)(O)O)c12 [Micronised psilocybin],D10,[1],0.45 μm
same,D50,[1],1.20 μm
"CN(C)CCc1c[nH]c2cccc(O)c12 [psilocin, 4-hydroxy-N,N-dimethyltryptamine]","Cl, clearance (95% CI)",[4],"3810 (3340, 4290) ml/min"
same,"V, volume of distribution of the central compartment (95% CI)",[4],"88600 (77300, 99900) ml"
same,k12 (95% CI),[4],"0.176 (0.144, 0.208) /min"
same,k21 (95% CI),[4],"0.0489 (0.0388, 0.0591) /min"
same,dose normalised AUC,[5]; 10 mg/kg SC psilocybin dose in rats versus other doses (not shown),considerably greater than the other doses
same,Cl (95% CI),[5]; [7],"2490 (2260, 2710) mL/h"
same,"ka, absorption rate constant (95% CI)",[5]; [7],"2.32 (2.03, 2.61) /h"
same,V,"[5]; rat, fixed to human total volume of distribution on ml/kg basis",1746 (Fixed) mL
same,absorption half-life,[6],17.9 min
same,chemical degradation upon micronisation (XRPD),XRPD after micronisation,no significant chemical degradation upon micronisation
same,solubility versus pH,[3]; initial solution trials,higher solubility at acidic pH
same,solubility in DMSO and NMP,[3]; non-micronised,good

# Source: patent publication US20230364007A1, “ADMINISTRATION OF A P[…]” (Reset Pharmaceuticals, Inc., priority 2022, published 2023)
